Experimental data as given in patent US20180072666A1, “ENOYL REDUCTASE INHIBITORS WITH ANTIBACTERIAL ACTIVITY” (Novalex Therapeutics, Inc., priority 2016, published 2018).
≈ marks a conversion by molar mass, not a printed value. Where two headings read alike, the source gives them in different places.

Experiments:
[1] = system: E. coli tolC- (strain BW25113, efflux pump mutant); assay: microbe, parasite or virus in culture; type: cell-based; details: Escherichia coli, BW25113, read-out: MIC E. coli TolC-
S. aureus strain RN4220 = assay: microbe, parasite or virus in culture; type: cell-based; details: Staphylococcus aureus, RN4220, read-out: MIC S. aureus RN4220 WT
[2] = target: T1, Staphylococcus aureus FabI (SaFabI) (Staphylococcus aureus, UniProt Q6GI75); assay: biochemical; type: biochemical
T1 sequence (Q6GI75 1-256): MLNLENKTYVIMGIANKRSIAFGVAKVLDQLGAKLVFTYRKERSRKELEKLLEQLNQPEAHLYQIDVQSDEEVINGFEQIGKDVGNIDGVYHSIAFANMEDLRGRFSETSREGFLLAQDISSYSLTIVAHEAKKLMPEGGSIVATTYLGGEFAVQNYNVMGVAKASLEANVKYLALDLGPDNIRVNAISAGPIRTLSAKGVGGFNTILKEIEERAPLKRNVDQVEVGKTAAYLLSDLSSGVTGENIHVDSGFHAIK

E. coli strain BW25113 = assay: microbe, parasite or virus in culture; type: cell-based; details: Escherichia coli, BW25113, read-out: MIC E. coli BW25113 WT
[3] = system: F. tularensis (strain Utah); assay: microbe, parasite or virus in culture; type: cell-based; details: Francisella tularensis, read-out: MIC F. tularensis strain Utah
[4] = target: Acinetobacter baumannii FabI (AbFabI) (Acinetobacter baumannii, UniProt A0ABX6CD96); assay: biochemical; type: biochemical; details: read-out: Enzyme inhibition or IC50 with AbFabl
S. aureus strain Newman = assay: MIC determination, S. aureus Newman; type: cell-based; details: Staphylococcus aureus, read-out: MIC S. aureus Newman WT
[5] = 200 nM enzyme, 300 μM crotonyl-coenzymeA, 200 μM NADPH, pH 5.5, read-out: Enzyme inhibition or IC50 with SaFabl
[6] = TSB media, 37° C. overnight, first clear well

SMILES | MIC [1] | MIC (S. aureus strain RN4220) | IC50 [2, 5] | MIC (E. coli strain BW25113) | MIC [3] | IC50 ([4]; pH 5.5) | MIC (S. aureus strain Newman) | IC50 [4] | IC50 [2] | MIC (S. aureus strain Newman; [6])
CC(=O)Nc1ccc(/C=C/C(=O)N2CCC(c3ccccc3)C2)cn1 (centres unmarked) | 12.5 µg/mL (≈ 37.3 µM) | > 200 µg/mL | 1.2 µM | > 200 µg/mL | > 200 µg/mL | 0.47 µM | – | – | – | –
COc1ccccc1C1CCN(C(=O)/C=C/c2ccc(NC(C)=O)nc2)C1 (centres unmarked) | 0.75 µg/mL (≈ 2.05 µM) | 12.5 to 25 µg/mL (≈ 34.2 to 68.4 µM) | 3.5 µM | > 200 µg/mL | 12.5 µg/mL (≈ 34.2 µM) | 0.42 µM | 12.5 to 25 µg/mL (≈ 34.2 to 68.4 µM) | – | – | –
COc1ccccc1C1CCN(C(=O)Cc2ccccc2Cl)C1 (centres unmarked) | > 200 µg/mL | 12.5 to 25 µg/mL (≈ 37.9 to 75.8 µM) | 0.5 µM | – | 50 µg/mL (≈ 152 µM) | – | – | 0.88 µM | – | –
CC(=O)Nc1ccc(/C=C/C(=O)N2CCC(c3ccccn3)C2)cn1 (centres unmarked) | 100 µg/mL (≈ 297 µM) | > 100 µg/mL | 28.4 µM | > 100 µg/mL | > 100 µg/mL | – | – | 5 µM | – | –
CC(=O)Nc1ccc(/C=C/C(=O)N2CCC(c3ccc4c(c3)OCO4)C2)cn1 (centres unmarked) | > 100 µg/mL | > 200 µg/mL | 1.1 µM | > 100 µg/mL | > 200 µg/mL | 8.5 µM | – | – | – | –
CC(=O)Nc1ccc(/C=C/C(=O)N2CCC(c3nccs3)C2)cn1 (centres unmarked) | > 100 µg/mL | > 100 µg/mL | 4.5 µM | > 100 µg/mL | > 100 µg/mL | – | – | 10 to 20 µM | – | –
O=C(Cc1ccccc1Cl)N1CCC(c2nccs2)C1 (centres unmarked) | > 100 µg/mL | 50 µg/mL (≈ 163 µM) | 6 µM | – | 200 µg/mL (≈ 652 µM) | – | – | 14 µM | – | –
O=C(Cc1ccccc1Cl)N1CCC(c2ccccc2)C1 (centres unmarked) | – | 12.5 µg/mL (≈ 41.7 µM) | 10.7 µM | > 200 µg/mL | 25 µg/mL (≈ 83.4 µM) | 3.1 µM | 12.5 to 25 µg/mL (≈ 41.7 to 83.4 µM) | – | – | –
O=C(Cc1ccccc1Cl)N1CCC(c2ccc3c(c2)OCO3)C1 (centres unmarked) | – | 12.5 µg/mL (≈ 36.4 µM) | 2.5 µM | > 200 µg/mL | 25 µg/mL (≈ 72.7 µM) | – | 6.25 to 12.5 µg/mL (≈ 18.2 to 36.4 µM) | 3.7 µM | – | –
O=C(Cc1ccccc1Cl)N1CCC(c2ccccn2)C1 (centres unmarked) | > 200 µg/mL | 100 µg/mL (≈ 332 µM) | 18.4 µM | – | 200 µg/mL (≈ 665 µM) | 30.7 µM | – | – | – | –
CC(=O)Nc1ccc(CC(=O)N2CCC(c3ccccc3)C2)cc1 (centres unmarked) | 200 µg/mL (≈ 620 µM) | > 200 µg/mL | – | – | 200 µg/mL (≈ 620 µM) | – | – | > 100 µM | – | –
COc1ccccc1C1CCN(C(=O)Cc2ccc(NC(C)=O)cc2)C1 (centres unmarked) | > 200 µg/mL | > 200 µg/mL | – | – | > 200 µg/mL | – | – | > 100 µM | – | –
CC(=O)Nc1ccc(CC(=O)N2CCC(c3ccc4c(c3)OCO4)C2)cc1 (centres unmarked) | > 200 µg/mL | > 200 µg/mL | – | – | > 200 µg/mL | – | – | > 100 µM | – | –
COc1ccc(C2CCN(C(=O)Cc3ccc(NC(C)=O)cc3)C2)cc1 (centres unmarked) | > 200 µg/mL | > 200 µg/mL | – | – | > 200 µg/mL | – | – | > 100 µM | – | –
COc1ccc(C2CCN(C(=O)/C=C/c3ccc(NC(C)=O)nc3)C2)cc1 (centres unmarked) | > 200 µg/mL | > 200 µg/mL | – | – | > 200 µg/mL | – | – | > 100 µM | 3.55 µM | –
CC(=O)Nc1ccc(CC(=O)N2CCC(c3nccs3)C2)cc1 (centres unmarked) | > 200 µg/mL | > 200 µg/mL | – | – | > 200 µg/mL | – | – | > 100 µM | – | –
COc1ccc(C2CCN(C(=O)Cc3ccccc3Cl)C2)cc1 (centres unmarked) | 100 µg/mL (≈ 303 µM) | 100 µg/mL (≈ 303 µM) | 12.5 µM | – | 12.5 µg/mL (≈ 37.9 µM) | – | – | – | – | –
CC(C)S(=O)(=O)c1ccc(CC(=O)N2CCC(c3ccc4c(c3)OCO4)C2)cc1 (centres unmarked) | > 200 µg/mL | > 200 µg/mL | – | – | 100 µg/mL (≈ 241 µM) | – | – | > 100 µM | – | –
O=C(Cc1c(F)cccc1Cl)N1CCC(c2ccc3c(c2)OCO3)C1 (centres unmarked) | > 200 µg/mL | 25 µg/mL (≈ 69.1 µM) | 1.8 µM | – | 25 µg/mL (≈ 69.1 µM) | – | – | > 100 µM | – | –
O=C(Cc1ccccc1F)N1CCC(c2ccccc2)C1 (centres unmarked) | > 200 µg/mL | 50 µg/mL (≈ 176 µM) | 5 µM | – | 50 µg/mL (≈ 176 µM) | – | – | 2.5 µM | – | 50 to 100 µg/mL (≈ 176 to 353 µM)
O=C(Cc1c(F)cccc1F)N1CCC(c2ccccc2)C1 (centres unmarked) | > 200 µg/mL | 50 µg/mL (≈ 166 µM) | 1.9 µM | – | 50 µg/mL (≈ 166 µM) | – | – | 6.9 µM | – | 50 to 100 µg/mL (≈ 166 to 332 µM)
O=C(Cc1cccc(F)c1F)N1CCC(c2ccccc2)C1 (centres unmarked) | > 200 µg/mL | 50 µg/mL (≈ 166 µM) | 7.3 µM | – | 25 to 50 µg/mL (≈ 83 to 166 µM) | – | – | 9.3 µM | – | 50 to 100 µg/mL (≈ 166 to 332 µM)
COc1ccccc1C1CCN(C(=O)/C=C/c2ccc(NC(C)=O)cc2)C1 (centres unmarked) | > 200 µg/mL | > 200 µg/mL | – | – | > 200 µg/mL | – | – | – | – | –
COc1ccccc1C1CCN(C(=O)Cc2ccccc2F)C1 (centres unmarked) | > 200 µg/mL | 50 to 100 µg/mL (≈ 160 to 319 µM) | 4.6 µM | – | 50 to 100 µg/mL (≈ 160 to 319 µM) | – | – | 1.9 µM | – | 50 to 100 µg/mL (≈ 160 to 319 µM)
COc1ccccc1C1CCN(C(=O)Cc2c(F)cccc2F)C1 (centres unmarked) | > 200 µg/mL | 50 to 100 µg/mL (≈ 151 to 302 µM) | 5.7 µM | – | 50 to 100 µg/mL (≈ 151 to 302 µM) | – | – | 1.6 µM | – | 50 to 100 µg/mL (≈ 151 to 302 µM)
COc1ccccc1C1CCN(C(=O)Cc2cccc(F)c2F)C1 (centres unmarked) | > 200 µg/mL | 100 µg/mL (≈ 302 µM) | 3 µM | – | 50 µg/mL (≈ 151 µM) | – | – | 7.4 µM | – | –
O=C(Cc1ccccc1F)N1CCC(c2ccc3c(c2)OCO3)C1 (centres unmarked) | > 200 µg/mL | > 200 µg/mL | 2.7 µM | – | 25 to 50 µg/mL (≈ 76.4 to 153 µM) | 32 µM | – | – | – | –
O=C(Cc1c(F)cccc1F)N1CCC(c2ccc3c(c2)OCO3)C1 (centres unmarked) | > 200 µg/mL | > 200 µg/mL | 2.3 µM | – | > 200 µg/mL | 54 µM | – | – | – | –
O=C(Cc1cccc(F)c1F)N1CCC(c2ccc3c(c2)OCO3)C1 (centres unmarked) | > 200 µg/mL | 100 µg/mL (≈ 290 µM) | 5.5 µM | – | 25 µg/mL (≈ 72.4 µM) | 13.7 µM | – | – | – | –
